Assays:
ALK = ALK (Homo sapiens, UniProt Q9UM73); assay: Kinase assay, ALK (33P-ATP incorporation or luciferase-coupled ATP consumption); assay type: biochemical
Protocol: Kinase assays were performed by measurement of incorporation of γ-^33P ATP into immobilized myelin basic protein (MBP). […] Plates were washed 3× with 100 μl TBS. […] Compound dilutions were performed in DMSO and added to assay wells to a final DMSO concentration of 1%. Each data point was measured in duplicate, and at least two duplicate assays were performed for each individual compound determination. Enzyme was added to final concentrations of 10 nM or 20 nM, for example. A mixture of unlabeled ATP and γ-^33P ATP was added to start the reaction (2×10^6 cpm of γ-^33P ATP per well (3000 Ci/mmole) and either 10 μM or 30 μM unlabeled ATP, typically. The reactions were carried out for 1 hour at room temperature with shaking. Plates were washed 7× with TBS, followed by the addition of 50 μl/well scintillation fluid (Wallac). Plates were read using a Wallac Trilux counter. This is only one format of such assays, various other formats are possible, as known to one of ordinary skill in the art.
Tyrosine kinase activity is determined by 1) measurement of kinase-dependent ATP consumption by in the presence of a generic substrate such as, polyglutamic acid, tyrosine, 4:1 (pEY), by luciferase/luciferin-mediated chemiluminescence or; 2) incorporation of radioactive phosphate derived from ^33P-ATP into a generic substrate which has been adsorbed onto the well surface of polystyrene microtiter plates. Phosphorylated substrate products are quantified by scintillation spectrometry.
(§1) Kinase activity and compound inhibition are investigated using one or more assay formats. The ATP concentrations for each assay are selected to be close to the Michaelis-Menten constant (KM) for each individual kinase. Dose-response experiments are performed at 10 different inhibitor concentrations in a 384-well plate format. […] Exemplary kinase assays are described below. KDR Assay

EphA2 = EphA2 (Homo sapiens, UniProt P29317); assay: Kinase assay, EphA2 (33P-ATP incorporation or luciferase-coupled ATP consumption); assay type: biochemical
Summary of the method: (§2)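 Kinase activity measured either by γ-33P ATP incorporation into immobilized substrate (MBP or pEY) with scintillation counting, or by luciferase-based ATP consumption with pEY. Enzyme 10 or 20 nM; ATP near each kinase's KM (e.g. 10 or 30 μM); 1 h at room temperature, 1% DMSO, 10-point dose-response.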

Fyn = Fyn (Homo sapiens, UniProt P06241); assay: Kinase assay, Fyn; assay type: biochemical
Protocol: as §1

EGFR = EGFR (Homo sapiens, UniProt P00533); assay: Kinase assay, EGFR (33P-ATP incorporation or luciferase-coupled ATP consumption); assay type: biochemical
Summary of the method: as §2

[1] = molecular target: T1, KDR (baculovirus expressed human KDR kinase domain D807-V1356) (Homo sapiens, UniProt P35968); assay: biochemical
T1 construct: human KDR kinase domain D807-V1356; host or cells: baculovirus expression system
Summary of the method: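 Luciferase-coupled chemiluminescence quantifies ATP left after a 4 h room-temperature reaction of KDR kinase domain (D807–V1356, baculovirus-expressed human). ATP set close to KM; inhibitors tested at 10 concentrations.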

IRK = IRK (Homo sapiens, UniProt P06213); assay: Kinase assay, IRK; assay type: biochemical
Protocol: as §1

FGFR1 = FGFR1 (Homo sapiens, UniProt P11362); assay: Kinase assay, FGFR1 (33P-ATP incorporation or luciferase-coupled ATP consumption); assay type: biochemical
Summary of the method: as §2

PDGFR alpha = PDGFR alpha (Homo sapiens, UniProt P16234); assay: Kinase assay, PDGFR alpha (33P-ATP incorporation or luciferase-coupled ATP consumption); assay type: biochemical; details: read-out: PDGF-R-A IC50
Summary of the method: as §2

c-Kit kinase = c-Kit kinase (Homo sapiens, UniProt P10721); assay: c-Kit AlphaScreen kinase assay; assay type: biochemical
Protocol: as §1
c-Kit biochemical activity was assessed using AlphaScreen™ (Perkin Elmer) technology, described above. Test compounds, ATP, biotinylated poly(Glu, Tyr) and c-Kit kinase were combined in a volume of 20 μL in a 384-well white, medium binding microtiter plate (Greiner). Reaction mixtures were incubated for 1 hr at ambient temperature. Reactions were quenched by addition of 10 uL of […] AlphaScreen bead suspension containing 75 mM Hepes, pH 7.4, 300 mM NaCl, 120 mM EDTA, 0.3% BSA and 0.03% Tween-20. After 16 hr incubation at ambient temperature plates were read using an AlphaQuest reader (Perkin Elmer).

Flt-1 = Flt-1 (Homo sapiens, UniProt P17948); assay: Kinase assay, Flt-1 (33P-ATP incorporation or luciferase-coupled ATP consumption); assay type: biochemical; details: read-out: Flt1 IC50
Summary of the method: as §2

EGFR, sequence (P00533 25-1210, species assumed): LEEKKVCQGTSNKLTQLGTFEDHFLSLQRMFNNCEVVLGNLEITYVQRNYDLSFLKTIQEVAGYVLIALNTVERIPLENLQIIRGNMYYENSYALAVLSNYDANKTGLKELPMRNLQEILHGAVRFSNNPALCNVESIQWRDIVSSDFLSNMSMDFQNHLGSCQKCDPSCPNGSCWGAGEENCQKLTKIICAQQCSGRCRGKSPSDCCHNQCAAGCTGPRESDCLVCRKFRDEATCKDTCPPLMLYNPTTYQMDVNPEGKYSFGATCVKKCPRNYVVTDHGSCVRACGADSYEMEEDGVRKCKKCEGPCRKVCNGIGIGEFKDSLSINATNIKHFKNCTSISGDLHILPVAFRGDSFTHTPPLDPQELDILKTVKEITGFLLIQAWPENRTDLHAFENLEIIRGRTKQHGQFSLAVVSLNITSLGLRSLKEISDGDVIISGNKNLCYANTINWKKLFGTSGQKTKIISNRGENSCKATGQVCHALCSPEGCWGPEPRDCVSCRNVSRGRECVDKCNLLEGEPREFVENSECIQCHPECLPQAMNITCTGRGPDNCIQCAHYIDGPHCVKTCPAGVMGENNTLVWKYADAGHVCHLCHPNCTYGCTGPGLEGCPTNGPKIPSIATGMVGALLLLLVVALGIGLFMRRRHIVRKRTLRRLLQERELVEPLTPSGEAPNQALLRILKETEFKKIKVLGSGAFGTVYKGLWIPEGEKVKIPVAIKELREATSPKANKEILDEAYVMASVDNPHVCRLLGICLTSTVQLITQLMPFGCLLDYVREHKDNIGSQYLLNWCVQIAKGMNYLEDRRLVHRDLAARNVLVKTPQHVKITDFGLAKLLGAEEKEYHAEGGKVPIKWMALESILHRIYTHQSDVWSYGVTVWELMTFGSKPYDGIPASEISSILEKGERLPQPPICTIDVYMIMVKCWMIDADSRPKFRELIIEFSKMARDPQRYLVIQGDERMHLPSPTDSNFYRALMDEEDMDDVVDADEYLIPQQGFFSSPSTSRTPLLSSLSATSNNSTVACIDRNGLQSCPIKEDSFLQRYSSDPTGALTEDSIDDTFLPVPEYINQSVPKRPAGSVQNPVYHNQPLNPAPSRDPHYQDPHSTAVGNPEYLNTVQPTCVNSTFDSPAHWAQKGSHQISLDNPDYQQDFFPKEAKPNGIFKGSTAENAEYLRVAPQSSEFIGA
FGFR1, sequence (P11362 22-822, species assumed): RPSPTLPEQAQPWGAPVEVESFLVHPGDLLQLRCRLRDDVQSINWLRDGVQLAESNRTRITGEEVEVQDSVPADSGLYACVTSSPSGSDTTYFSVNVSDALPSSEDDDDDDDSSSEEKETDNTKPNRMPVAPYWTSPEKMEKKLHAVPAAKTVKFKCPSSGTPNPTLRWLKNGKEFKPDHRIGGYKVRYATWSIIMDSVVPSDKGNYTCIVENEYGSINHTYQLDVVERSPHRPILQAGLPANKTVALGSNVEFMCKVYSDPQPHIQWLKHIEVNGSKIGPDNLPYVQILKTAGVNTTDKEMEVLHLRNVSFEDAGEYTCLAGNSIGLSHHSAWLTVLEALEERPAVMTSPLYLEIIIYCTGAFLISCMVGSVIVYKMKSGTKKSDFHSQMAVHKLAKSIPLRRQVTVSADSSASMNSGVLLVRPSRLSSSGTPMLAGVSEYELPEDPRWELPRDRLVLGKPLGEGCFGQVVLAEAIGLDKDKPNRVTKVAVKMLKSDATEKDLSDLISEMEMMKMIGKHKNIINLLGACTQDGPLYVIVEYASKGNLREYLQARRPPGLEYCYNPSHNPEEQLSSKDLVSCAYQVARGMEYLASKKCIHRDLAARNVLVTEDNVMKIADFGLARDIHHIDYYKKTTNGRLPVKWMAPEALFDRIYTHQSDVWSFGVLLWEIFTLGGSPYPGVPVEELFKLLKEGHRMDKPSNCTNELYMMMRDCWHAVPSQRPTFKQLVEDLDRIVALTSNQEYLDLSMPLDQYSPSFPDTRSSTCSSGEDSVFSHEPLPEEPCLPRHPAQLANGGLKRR
c-Kit kinase, sequence (P10721 26-976): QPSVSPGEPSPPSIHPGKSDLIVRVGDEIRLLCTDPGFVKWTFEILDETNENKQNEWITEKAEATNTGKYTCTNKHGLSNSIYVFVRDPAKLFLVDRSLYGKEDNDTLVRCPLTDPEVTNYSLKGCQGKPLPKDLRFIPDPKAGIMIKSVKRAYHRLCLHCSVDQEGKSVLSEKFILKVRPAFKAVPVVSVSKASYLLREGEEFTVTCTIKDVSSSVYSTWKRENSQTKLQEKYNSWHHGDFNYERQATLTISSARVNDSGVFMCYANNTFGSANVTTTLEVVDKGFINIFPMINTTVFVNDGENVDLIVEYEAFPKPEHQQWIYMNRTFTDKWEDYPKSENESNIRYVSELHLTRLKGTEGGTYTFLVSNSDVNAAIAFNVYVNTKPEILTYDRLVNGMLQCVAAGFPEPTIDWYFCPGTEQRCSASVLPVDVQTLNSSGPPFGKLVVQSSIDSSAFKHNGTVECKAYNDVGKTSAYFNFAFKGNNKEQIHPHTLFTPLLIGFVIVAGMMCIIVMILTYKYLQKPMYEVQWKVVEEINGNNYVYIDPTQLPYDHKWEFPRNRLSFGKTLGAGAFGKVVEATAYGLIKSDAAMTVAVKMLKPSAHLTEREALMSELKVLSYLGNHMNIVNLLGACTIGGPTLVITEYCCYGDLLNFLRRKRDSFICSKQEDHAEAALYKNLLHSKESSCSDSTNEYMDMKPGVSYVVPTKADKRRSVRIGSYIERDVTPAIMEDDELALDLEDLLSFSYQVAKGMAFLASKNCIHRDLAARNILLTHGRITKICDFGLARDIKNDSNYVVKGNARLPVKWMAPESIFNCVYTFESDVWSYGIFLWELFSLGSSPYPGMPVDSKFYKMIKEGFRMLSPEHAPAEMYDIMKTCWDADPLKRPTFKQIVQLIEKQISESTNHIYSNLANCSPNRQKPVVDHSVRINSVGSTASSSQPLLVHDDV
Fyn, sequence (P06241 whole entry, species assumed): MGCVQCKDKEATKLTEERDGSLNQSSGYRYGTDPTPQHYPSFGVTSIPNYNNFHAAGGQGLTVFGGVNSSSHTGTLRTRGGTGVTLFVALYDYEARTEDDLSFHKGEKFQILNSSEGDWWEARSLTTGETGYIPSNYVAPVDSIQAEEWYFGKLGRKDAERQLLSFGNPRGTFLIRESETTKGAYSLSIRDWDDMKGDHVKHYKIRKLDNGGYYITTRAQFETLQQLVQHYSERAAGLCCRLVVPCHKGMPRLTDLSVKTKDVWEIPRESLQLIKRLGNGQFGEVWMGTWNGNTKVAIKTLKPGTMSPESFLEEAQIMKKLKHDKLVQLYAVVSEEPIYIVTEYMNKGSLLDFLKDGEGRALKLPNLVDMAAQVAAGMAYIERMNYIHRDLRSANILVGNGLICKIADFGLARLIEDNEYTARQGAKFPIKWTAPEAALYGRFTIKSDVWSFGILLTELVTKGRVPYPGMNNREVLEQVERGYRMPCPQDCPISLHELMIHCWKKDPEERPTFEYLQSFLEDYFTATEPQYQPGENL
IRK, sequence (P06213 28-1382): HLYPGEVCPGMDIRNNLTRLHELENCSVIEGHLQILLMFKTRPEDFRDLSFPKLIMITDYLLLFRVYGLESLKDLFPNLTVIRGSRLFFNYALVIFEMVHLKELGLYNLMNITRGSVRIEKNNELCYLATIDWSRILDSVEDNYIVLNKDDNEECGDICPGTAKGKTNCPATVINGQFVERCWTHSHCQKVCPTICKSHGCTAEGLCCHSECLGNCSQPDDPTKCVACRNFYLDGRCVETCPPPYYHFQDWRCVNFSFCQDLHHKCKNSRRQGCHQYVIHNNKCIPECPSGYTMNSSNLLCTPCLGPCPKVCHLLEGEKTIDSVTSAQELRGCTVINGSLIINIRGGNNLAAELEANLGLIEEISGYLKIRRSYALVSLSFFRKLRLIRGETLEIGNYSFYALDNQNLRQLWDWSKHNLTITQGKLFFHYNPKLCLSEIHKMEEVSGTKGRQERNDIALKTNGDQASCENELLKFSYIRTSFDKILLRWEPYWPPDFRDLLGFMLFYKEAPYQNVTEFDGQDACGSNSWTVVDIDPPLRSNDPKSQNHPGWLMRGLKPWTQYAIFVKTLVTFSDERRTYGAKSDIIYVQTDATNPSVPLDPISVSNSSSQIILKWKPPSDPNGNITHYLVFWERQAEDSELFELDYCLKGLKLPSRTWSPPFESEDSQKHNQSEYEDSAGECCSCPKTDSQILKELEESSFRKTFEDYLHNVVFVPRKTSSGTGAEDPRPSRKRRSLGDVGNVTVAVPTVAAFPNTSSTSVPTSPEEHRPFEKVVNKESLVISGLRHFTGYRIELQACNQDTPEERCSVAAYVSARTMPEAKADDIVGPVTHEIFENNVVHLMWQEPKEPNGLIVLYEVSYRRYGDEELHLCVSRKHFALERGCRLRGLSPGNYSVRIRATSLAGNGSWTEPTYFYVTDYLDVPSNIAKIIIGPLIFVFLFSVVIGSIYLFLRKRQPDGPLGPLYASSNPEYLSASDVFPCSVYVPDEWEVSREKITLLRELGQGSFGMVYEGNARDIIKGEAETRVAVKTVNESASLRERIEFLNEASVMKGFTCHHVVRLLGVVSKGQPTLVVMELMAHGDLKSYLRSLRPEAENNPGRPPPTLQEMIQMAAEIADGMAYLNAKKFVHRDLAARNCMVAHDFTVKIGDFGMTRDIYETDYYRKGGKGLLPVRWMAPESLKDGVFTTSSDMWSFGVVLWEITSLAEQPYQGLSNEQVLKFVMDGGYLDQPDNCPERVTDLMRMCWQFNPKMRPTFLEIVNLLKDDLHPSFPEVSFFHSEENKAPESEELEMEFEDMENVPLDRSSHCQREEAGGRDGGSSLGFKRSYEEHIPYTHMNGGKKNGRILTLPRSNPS

Structure (SMILES) | IC50 (ALK) [nM] | IC50 (EphA2) [nM] | IC50 (Fyn) [nM] | IC50 (EGFR) [nM] | IC50 [1] [nM] | IC50 (IRK) [nM] | IC50 (FGFR1) [nM] | IC50 (PDGFR alpha) [nM] | IC50 (c-Kit kinase) [nM] | IC50 (Flt-1) [nM]
COCCN1CCC(Nc2ccc3c(c2)/C(=C(\c2ccc(C)c(F)c2)c2nc(C)c[nH]2)C(=O)N3)CC1 [Entry 97] | < 50 | 500 to 5000 | < 50 | < 50 | < 50 | 500 to 5000 | < 50 |  |  | 
CCN1CCC(Nc2ccc3c(c2)/C(=C(/c2ncc[nH]2)c2ccc(C(F)(F)F)cc2F)C(=O)N3)CC1 [Entry 100, (3Z)-5-[(1-ethylpiperidin-4-yl)amino]-3-[[2-fluoro-4-(trifluoromethyl)phenyl] (1H-imidazol-2-yl)methylidene]-1,3-dihydro-2H-indol-2-one] |  | 500 to 5000 | < 50 | 50 to 500 | < 50 | 500 to 5000 | < 50 | < 50 | < 50 | 
CCN1CCC(Nc2ccc3c(c2)/C(=C(\c2cc(F)cc(F)c2)c2ncc[nH]2)C(=O)N3)CC1 [Entry 73, (3Z)-3-[(3,5-difluorophenyl)(1H-imidazol-2-yl)methylidene]-5-[(1-ethylpiperidin-4-yl)amino]-1,3-dihydro-2H-indol-2-one] |  | 500 to 5000 | < 50 | 50 to 500 | < 50 | > 5000 | < 50 | < 50 | 50 to 500 | 
COCCN1CCC(Nc2ccc3c(c2)/C(=C(\c2cccc(F)c2)c2ncc[nH]2)C(=O)N3)CC1 [Entry 41, (3Z)-3-[(3-fluorophenyl)(1H-imidazol-2-yl)methylidene]-5-({1-[2-(methyloxy)ethyl]piperidin-4-yl}amino)-1,3-dihydro-2H-indol-2-one] |  | 500 to 5000 | < 50 | 50 to 500 | < 50 | 500 to 5000 | < 50 | < 50 | 50 to 500 | 50 to 500
CCN1CCC(Nc2ccc3c(c2)/C(=C(\c2ccc(F)c(Cl)c2)c2ncc[nH]2)C(=O)N3)CC1 [Entry 53, (3Z)-3-[(3-chloro-4-fluorophenyl) (1H-imidazol-2-yl)methylidene]-5-[(1-ethylpiperidin-4-yl)amino]-1,3-dihydro-2H-indol-2-one] |  | 500 to 5000 | < 50 | 500 to 5000 | < 50 | > 5000 | < 50 | < 50 | < 50 | 
CCN1CCC(Nc2ccc3c(c2)/C(=C(\c2ccc(C(F)(F)F)c(F)c2)c2ncc[nH]2)C(=O)N3)CC1 [Entry 65, (3Z)-5-[(1-ethylpiperidin-4-yl)amino]-3-[[3-fluoro-4-(trifluoromethyl)phenyl](1H-imidazol-2-yl)methylidene]-1,3-dihydro-2H-indol-2-one] |  | 500 to 5000 | < 50 | 50 to 500 | < 50 | > 5000 | < 50 | < 50 | 50 to 500 | 
CCN1CCC(Nc2ccc3c(c2)/C(=C(\c2ccc(C)cc2)c2ncc[nH]2)C(=O)N3)CC1 [Entry 13, (3Z)-5-[(1-ethylpiperidin-4-yl)amino]-3-[1H-imidazol-2-yl(4-methylphenyl)methylidene]-1,3-dihydro-2H-indol-2-one] |  | 50 to 500 | < 50 | 50 to 500 | < 50 | 500 to 5000 | < 50 | < 50 | 50 to 500 | 50 to 500

Now from value to compound:

IC50 (ALK) [nM] | IC50 (EphA2) [nM] | IC50 (Fyn) [nM] | IC50 (EGFR) [nM] | IC50 [1] [nM] | IC50 (IRK) [nM] | IC50 (FGFR1) [nM] | IC50 (PDGFR alpha) [nM] | IC50 (c-Kit kinase) [nM] | IC50 (Flt-1) [nM] | Structure (SMILES)
 | 500 to 5000 | 50 to 500 | 500 to 5000 | < 50 | 500 to 5000 | 50 to 500 | < 50 | < 50 |  | CCN1CCC(Nc2ccc3c(c2)/C(=C(\c2cccc(C(F)(F)F)c2)c2nc(C)c[nH]2)C(=O)N3)CC1 [Entry 115, (3Z)-3-[(3-trifluoromethylphenyl)(4-methyl-1H-imidazol-2-yl)methylidene]-5-[(1-ethylpiperidin-4-yl)amino]-1,3-dihydro-2H-indol-2-one]
 | 500 to 5000 | < 50 | 50 to 500 | < 50 | 500 to 5000 | < 50 | < 50 | < 50 |  | CCN1CCC(Nc2ccc3c(c2)/C(=C(/c2ncc[nH]2)c2ccccc2F)C(=O)N3)CC1 [Entry 107, (3Z)-5-[(1-ethylpiperidin-4-yl)amino]-3-[(2-fluorophenyl)(1H-imidazol-2-yl)methylidene]-1,3-dihydro-2H-indol-2-one]
 | 500 to 5000 | 50 to 500 | 500 to 5000 | < 50 | > 5000 | 50 to 500 | < 50 | 50 to 500 |  | CCN1CCC(Nc2ccc3c(c2)/C(=C(\c2cccc(C(F)(F)F)c2)c2ncc[nH]2)C(=O)N3)CC1 [Entry 114, (3Z)-3-[(3-trifluoromethylphenyl)(1H-imidazol-2-yl)methylidene]-5-[(1-ethylpiperidin-4-yl)amino]-1,3-dihydro-2H-indol-2-one]
 | 500 to 5000 | < 50 | 50 to 500 | < 50 | 500 to 5000 | 50 to 500 | < 50 | 50 to 500 |  | CCN1CCC(Nc2ccc3c(c2)/C(=C(\c2ccc(F)cc2)c2nc(C)c[nH]2)C(=O)N3)CC1 [Entry 106, (3Z)-5-[(1-ethylpiperidin-4-yl)amino]-3-[(4-fluorophenyl)(4-methyl-1H-imidazol-2-yl)methylidene]-1,3-dihydro-2H-indol-2-one]
 | 500 to 5000 | < 50 | < 50 | < 50 | > 5000 | < 50 | < 50 | 50 to 500 |  | CCN1CCC(Nc2ccc3c(c2)/C(=C(\c2ccc(F)c(F)c2)c2nc(C)c[nH]2)C(=O)N3)CC1 [Entry 104, (3Z)-3-[(3,4-difluorophenyl)(4-methyl-1H-imidazol-2-yl)methylidene]-5-[(1-ethylpiperidin-4-yl)amino]-1,3-dihydro-2H-indol-2-one]
 | 500 to 5000 | < 50 | 50 to 500 | < 50 | 500 to 5000 | < 50 | < 50 | < 50 |  | CCN1CCC(Nc2ccc3c(c2)/C(=C(/c2ncc[nH]2)c2cccc(F)c2F)C(=O)N3)CC1 [Entry 109, (3Z)-3-[(2,3-difluorophenyl)(1H-imidazol-2-yl)methylidene]-5-[(1-ethylpiperidin-4-yl)amino]-1,3-dihydro-2H-indol-2-one]
 | 500 to 5000 | < 50 | 50 to 500 | < 50 | 500 to 5000 | < 50 | < 50 | < 50 |  | CCN1CCC(Nc2ccc3c(c2)/C(=C(/c2nc(C)c[nH]2)c2ccc(C(F)(F)F)cc2F)C(=O)N3)CC1 [Entry 108, (3Z)-5-[(1-ethylpiperidin-4-yl)amino]-3-[[2-fluoro-4-(trifluoromethyl)phenyl] (4-methyl-1H-imidazol-2-yl)methylidene]-1,3-dihydro-2H-indol-2-one]
 | 500 to 5000 | < 50 | 50 to 500 | < 50 | 500 to 5000 | < 50 | < 50 | 50 to 500 |  | CCN1CCC(Nc2ccc3c(c2)/C(=C(\c2ccc(C(F)(F)F)cc2)c2nc(C)c[nH]2)C(=O)N3)CC1 [Entry 101]
